Tests used:
Experiment in all cases: relative viability (nuclei count vs DMSO), 5 days (fraction); higher = more cells survive
[1] = compound: CS(=O)(=O)c1ccc(C(=O)Nc2ccc(Cl)c(-c3ccccn3)c2)c(Cl)c1 [Vismodegib] + Nc1ncn([C@H]2C[C@H](O)[C@@H](CO)O2)c(=O)n1 [Decitabine] (partner 2 µM)
Method in brief: (§1)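 Cells from lung cancer lines were seeded into 1536-well plates and, one day later, dosed by pin tool. Treatments were either a single drug or a fixed dose of an anchor drug with five library-drug doses (not always all listed) in √10 steps. After 5 days, nuclei were stained in a one-step fixation (final 0.05% Triton X-100, 1% formaldehyde, 1 ug/ml Hoechst) and counted on 4× images, and relative viability is the treated-to-vehicle nuclei ratio, as the median of duplicate plates.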

[2] = compound: CS(=O)(=O)c1ccc(-c2cnc(N)c(C(=O)Nc3ccccc3)n2)cc1 [VE-821] + COc1cc2c(Oc3ccc(NC(=O)C4(C(=O)Nc5ccc(F)cc5)CC4)cc3F)ccnc2cc1OCCCN1CCOCC1 [Foretinib] (partner 0.25 µM)
Method in brief: as §1

[3] = compound: CS(=O)(=O)c1ccc(C(=O)Nc2ccc(Cl)c(-c3ccccn3)c2)c(Cl)c1 [Vismodegib] + Cc1cc(Nc2cc(N3CCN(C)CC3)nc(Sc3ccc(NC(=O)C4CC4)cc3)n2)n[nH]1 [Tozasertib] (partner 0.1 µM)
Method in brief: as §1

[4] = compound: CS(=O)(=O)c1ccc(-c2cnc(N)c(C(=O)Nc3ccccc3)n2)cc1 [VE-821] + CS(=O)(=O)CCNCc1ccc(-c2ccc3ncnc(Nc4ccc(OCc5cccc(F)c5)c(Cl)c4)c3c2)o1 [Lapatinib] (partner 2 µM)
Method in brief: as §1

Row | Cell Line | relative viability ([1]; first compound 0.08 µM) | relative viability ([1]; first compound 0.8 µM) | relative viability ([1]; first compound 2.53 µM) | relative viability ([1]; first compound 8 µM) | relative viability ([2]; first compound 0.08 µM) | relative viability ([2]; first compound 0.253 µM) | relative viability ([2]; first compound 0.8 µM) | relative viability ([2]; first compound 2.53 µM) | relative viability ([2]; first compound 8 µM) | relative viability ([3]; first compound 0.08 µM) | relative viability ([3]; first compound 0.253 µM) | relative viability ([3]; first compound 0.8 µM) | relative viability ([3]; first compound 2.53 µM) | relative viability ([3]; first compound 8 µM) | relative viability ([4]; first compound 0.08 µM) | relative viability ([4]; first compound 0.253 µM) | relative viability ([4]; first compound 0.8 µM) | relative viability ([4]; first compound 2.53 µM) | relative viability ([4]; first compound 8 µM) | relative viability ([1]; first compound 0.253 µM)
1 | HARA | 0.553 | 0.514 | 0.509 | 0.55 | 1.06 | 0.888 | 0.798 | 0.812 | 0.574 | 0.124 | 0.126 | 0.112 | 0.097 | 0.0937 | 0.825 | 0.559 | 0.826 | 0.757 | 0.47 | –
2 | HCC-15 | 0.635 | 0.687 | 0.668 | 0.576 | 1.16 | 1.1 | 1.1 | 1.27 | 0.98 | 0.415 | 0.444 | 0.386 | 0.399 | 0.424 | 0.958 | 0.875 | 0.87 | 1.09 | 0.796 | 0.659
3 | HCC-44 | 0.945 | 0.93 | 0.937 | 1.04 | – | – | – | – | – | 0.951 | 0.836 | 0.877 | 0.832 | 0.993 | 1.04 | 1.07 | 1.07 | 1.09 | 1.08 | 0.942
4 | HCC-78 | 0.561 | 0.661 | 0.698 | 0.786 | 0.577 | 0.524 | 0.539 | 0.628 | 0.569 | 0.352 | 0.454 | 0.502 | 0.304 | 0.41 | 1.06 | 0.795 | 0.371 | 1.03 | 0.255 | 0.736
5 | HCC-366 | 0.374 | 0.377 | 0.331 | 0.311 | 0.942 | 0.922 | 0.815 | 0.271 | 0.153 | 0.11 | 0.106 | 0.0997 | 0.0832 | 0.0622 | 1.1 | 1.03 | 0.883 | 0.406 | 0.064 | 0.283
6 | HCC-827 | 0.326 | 0.34 | 0.302 | 0.353 | 1.13 | 0.956 | 1.02 | 1.05 | 0.827 | 0.42 | 0.419 | 0.432 | 0.392 | 0.423 | 0.221 | 0.201 | 0.189 | 0.201 | 0.209 | 0.333
7 | IA-LM | – | – | – | – | 1.2 | 0.957 | 1.15 | 1.04 | 1.03 | – | – | – | – | – | 1.03 | 0.744 | 0.821 | 0.83 | 0.501 | –
8 | LCLC-103H | 0.74 | 0.768 | 0.726 | 0.735 | 0.926 | 0.876 | 0.82 | 0.914 | 0.572 | 0.503 | 0.506 | 0.489 | 0.437 | 0.446 | – | – | – | – | – | 0.755
9 | NCI-H441 | 0.23 | 0.235 | 0.211 | 0.238 | 1.36 | 1.04 | 1.19 | 1.04 | 0.928 | 0.576 | 0.63 | 0.567 | 0.524 | 0.584 | – | – | – | – | – | –
10 | NCI-H522 | 0.634 | 0.637 | 0.686 | 0.621 | – | – | – | – | – | 0.534 | 0.508 | 0.529 | 0.548 | 0.577 | – | – | – | – | – | 0.64
11 | NCI-H1299 | – | – | – | – | 1.1 | 1.08 | 1.04 | 1 | 1 | – | – | – | – | – | 0.948 | 0.885 | 0.915 | 0.913 | 0.771 | –
12 | NCI-H1563 | – | – | – | – | 0.937 | 0.903 | 0.769 | 0.876 | 0.83 | – | – | – | – | – | 0.92 | 0.981 | 0.812 | 0.912 | 0.792 | –
13 | NCI-H1623 | – | – | – | – | 0.936 | 0.816 | 0.741 | 0.867 | 0.73 | 0.403 | 0.42 | 0.422 | 0.418 | 0.411 | – | – | – | – | – | –
14 | NCI-H1648 | 0.499 | 0.482 | 0.459 | 0.527 | – | – | – | – | – | 0.395 | 0.461 | 0.348 | 0.427 | 0.562 | – | – | – | – | – | 0.472
15 | NCI-H1703 | – | – | – | – | 0.33 | 0.3 | 0.329 | 0.364 | 0.404 | – | – | – | – | – | 1.21 | 1 | 1.06 | 0.547 | 0.328 | –
16 | NCI-H1792 | 0.513 | 0.532 | 0.481 | 0.521 | – | – | – | – | – | – | – | – | – | – | 1.04 | 0.964 | 0.913 | 0.966 | 0.816 | 0.478
17 | NCI-H2228 | – | – | – | – | 0.945 | 0.849 | 0.946 | 0.749 | 0.567 | 0.218 | 0.277 | 0.23 | 0.217 | 0.265 | 1.18 | 1.23 | 1.14 | 1.04 | 0.37 | –
18 | NCI-H2342 | 0.752 | 0.709 | 0.804 | 0.89 | 1.25 | 0.917 | 0.951 | 1.1 | 1 | 0.508 | 0.492 | 0.477 | 0.511 | 0.461 | – | – | – | – | – | 0.637
19 | SW 900 | 0.404 | 0.429 | – | 0.481 | 0.848 | 0.997 | 0.836 | 0.916 | 0.681 | 0.52 | 0.574 | 0.56 | 0.426 | 0.435 | – | – | – | – | – | 0.417

— the supplement of paper PMC10307832
